Experimental data: US10717734B2, “Indole and azaindole haloallylamine derivative inhibitors of lysyl oxidases and uses thereof” (PHARMAXIS LTD., priority 2016, dated 2020)
Where a name gives a salt, the structure may show the parent alone.

How the values were obtained:
Assay type in all cases: biochemical
Bovine LOX = Bovine LOX (Bos taurus (Bovine), UniProt P33072); experiment: LOX inhibition, peroxidase-coupled Amplex Red amine oxidase assay; conditions: 30 min preincubation at 37° C., putrescine substrate
Chain of Bovine LOX (P33072 170-418): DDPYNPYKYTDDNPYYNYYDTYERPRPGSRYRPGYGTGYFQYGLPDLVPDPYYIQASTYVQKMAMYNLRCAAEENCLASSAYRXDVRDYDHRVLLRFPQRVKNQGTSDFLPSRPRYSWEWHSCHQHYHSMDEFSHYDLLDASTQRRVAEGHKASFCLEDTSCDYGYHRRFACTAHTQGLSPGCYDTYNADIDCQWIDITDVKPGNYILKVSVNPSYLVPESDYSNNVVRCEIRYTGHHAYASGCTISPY
Source text: (§1) Method to Determine the Ability of Compounds of the Invention to Inhibit LOX and LOXL1-4 from Different Sources
Lysyl oxidase (LOX) is an extracellular copper dependent enzyme which oxidizes peptidyl lysine and hydroxylysine residues in collagen and lysine residues in elastin to produce peptidyl alpha-aminoadipic-delta-semialdehydes. […] There are five LOX family members; these are LOX, LOXL1, LOXL2, LOXL3 and LOXL4. LOX and LOXL family members can be acquired as recombinant active proteins from commercial sources, or extracted from animal tissues like bovine aorta, tendons, pig skin; or prepared from cell cultures. The inhibitory effects of the compounds of the present invention were tested against the given LOX-LOXL preparation using a high-throughput coupled colorimetric method (Holt A. and Palcic M., A peroxidase-coupled continuous absorbance plate-reader assay for flavin monoamine oxidases, copper-containing amine oxidases and related enzymes. Nat. Protoc. 2006; 1: 2498-2505). The assay was developed using either 384 or 96 well format. Briefly, in a standard 384 well plate assay 25 μL of a dilution of any of the isoenzymes and orthologues in 1.2 M urea, 50 mM sodium borate buffer (pH 8.2) were added into each well in the presence of 1 μM mofegiline and 0.5 mM pargyline (to inhibit SSAO and MAO-B and MAO-A, respectively). […] Twenty five μL of a reaction mixture containing twice the KM concentration of putrescine (Sigma Aldrich, e.g. 20 mM for LOX, or 10 mM for LOXL2 and LOXL3), 120 μM Amplex Red (Sigma Aldrich) and 1.5 U/mL horseradish peroxidase (Sigma Aldrich) prepared in 1.2 M urea, 50 mM sodium borate buffer (pH 8.2) were then added to the corresponding wells. The above volumes were doubled in the case of 96 wells plate. The fluorescence (RFU) was read every 2.5 min for 30 min at a range of temperatures from 37° to 45° C., excitation 565 nm and emission 590 (Optima; BMG labtech). The slope of the kinetics for each well was calculated using MARS data analysis software (BMG labtech) and this value was used to deduce the IC50 value (Dotmatics).

Human LOXL2 = Human LOXL2 (Homo sapiens (Human), UniProt Q9Y4K0); experiment: LOXL2 inhibition, peroxidase-coupled Amplex Red amine oxidase assay; conditions: 30 min preincubation at 37° C., putrescine substrate
Chain of Human LOXL2 (Q9Y4K0 26-774): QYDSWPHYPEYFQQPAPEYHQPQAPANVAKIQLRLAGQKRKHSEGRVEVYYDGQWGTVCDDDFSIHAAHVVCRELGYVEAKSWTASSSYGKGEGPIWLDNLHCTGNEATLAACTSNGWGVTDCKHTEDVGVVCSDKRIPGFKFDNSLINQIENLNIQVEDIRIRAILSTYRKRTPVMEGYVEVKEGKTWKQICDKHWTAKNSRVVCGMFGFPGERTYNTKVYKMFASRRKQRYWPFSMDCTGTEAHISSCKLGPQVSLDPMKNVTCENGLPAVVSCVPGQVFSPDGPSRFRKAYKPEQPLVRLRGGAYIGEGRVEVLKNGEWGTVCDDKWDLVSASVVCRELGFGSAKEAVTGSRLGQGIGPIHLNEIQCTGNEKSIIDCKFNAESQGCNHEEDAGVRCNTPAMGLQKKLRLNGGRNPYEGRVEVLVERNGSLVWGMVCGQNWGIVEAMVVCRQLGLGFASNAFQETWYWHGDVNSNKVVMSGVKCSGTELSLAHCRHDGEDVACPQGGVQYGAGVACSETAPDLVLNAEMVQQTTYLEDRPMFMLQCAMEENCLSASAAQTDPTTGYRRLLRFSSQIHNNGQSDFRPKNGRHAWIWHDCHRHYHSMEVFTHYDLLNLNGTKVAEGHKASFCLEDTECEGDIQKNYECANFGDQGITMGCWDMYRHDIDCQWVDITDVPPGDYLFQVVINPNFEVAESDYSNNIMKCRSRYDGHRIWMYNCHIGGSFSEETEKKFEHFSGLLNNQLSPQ
Source text: as §1
Lysyl oxidase (LOX) is an extracellular copper dependent enzyme which oxidizes peptidyl lysine and hydroxylysine residues in collagen and lysine residues in elastin to produce peptidyl alpha-aminoadipic-delta-semialdehydes. […] There are five LOX family members; these are LOX, LOXL1, LOXL2, LOXL3 and LOXL4. LOX and LOXL family members can be acquired as recombinant active proteins from commercial sources, or extracted from animal tissues like bovine aorta, tendons, pig skin; or prepared from cell cultures. The inhibitory effects of the compounds of the present invention were tested against the given LOX-LOXL preparation using a high-throughput coupled colorimetric method (Holt A. and Palcic M., A peroxidase-coupled continuous absorbance plate-reader assay for flavin monoamine oxidases, copper-containing amine oxidases and related enzymes. Nat. Protoc. 2006; 1: 2498-2505). The assay was developed using either 384 or 96 well format. Briefly, in a standard 384 well plate assay 25 μL of a dilution of any of the isoenzymes and orthologues in 1.2 M urea, 50 mM sodium borate buffer (pH 8.2) were added into each well in the presence of 1 μM mofegiline and 0.5 mM pargyline (to inhibit SSAO and MAO-B and MAO-A, respectively). Test compounds were dissolved in DMSO and tested in a Concentration Response Curve (CRC) with 11 data points, typically in the micromolar or nanomolar range after incubation with the enzyme for 30 min at 37° C. Twenty five μL of a reaction mixture containing twice the KM concentration of putrescine (Sigma Aldrich, e.g. 20 mM for LOX, or 10 mM for LOXL2 and LOXL3), 120 μM Amplex Red (Sigma Aldrich) and 1.5 U/mL horseradish peroxidase (Sigma Aldrich) prepared in 1.2 M urea, 50 mM sodium borate buffer (pH 8.2) were then added to the corresponding wells. The above volumes were doubled in the case of 96 wells plate. The fluorescence (RFU) was read every 2.5 min for 30 min at a range of temperatures from 37° to 45° C., excitation 565 nm and emission 590 (Optima; BMG labtech). The slope of the kinetics for each well was calculated using MARS data analysis software (BMG labtech) and this value was used to deduce the IC50 value (Dotmatics).

[1] = target: Human recombinant SSAO/VAP-1 (Homo sapiens (Human), UniProt Q16853); experiment: Human recombinant SSAO/VAP-1 amine oxidase inhibition; conditions: 30 min preincubation at 37° C., 600 μM benzylamine
Chain of Human recombinant SSAO/VAP-1 (Q16853 34-763): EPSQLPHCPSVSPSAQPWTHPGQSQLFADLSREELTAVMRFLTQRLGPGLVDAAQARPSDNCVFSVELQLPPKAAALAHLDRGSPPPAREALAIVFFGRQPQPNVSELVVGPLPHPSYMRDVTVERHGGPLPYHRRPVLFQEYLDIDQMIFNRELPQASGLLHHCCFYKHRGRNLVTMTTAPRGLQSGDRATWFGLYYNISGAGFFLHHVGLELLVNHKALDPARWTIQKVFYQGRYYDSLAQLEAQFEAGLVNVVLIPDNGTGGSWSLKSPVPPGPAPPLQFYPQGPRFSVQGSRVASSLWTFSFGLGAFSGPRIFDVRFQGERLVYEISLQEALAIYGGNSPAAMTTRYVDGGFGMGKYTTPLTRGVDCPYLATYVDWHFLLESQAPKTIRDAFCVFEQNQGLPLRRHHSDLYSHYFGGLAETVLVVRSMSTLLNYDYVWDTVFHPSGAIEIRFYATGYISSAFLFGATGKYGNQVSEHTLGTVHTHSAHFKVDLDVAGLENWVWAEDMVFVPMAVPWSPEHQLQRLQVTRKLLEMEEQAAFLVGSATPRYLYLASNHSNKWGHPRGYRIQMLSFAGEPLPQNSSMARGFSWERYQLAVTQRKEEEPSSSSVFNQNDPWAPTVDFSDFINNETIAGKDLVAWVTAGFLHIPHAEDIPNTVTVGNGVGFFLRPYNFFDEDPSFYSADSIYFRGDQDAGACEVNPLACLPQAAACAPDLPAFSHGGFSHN
Procedure: Method to Determine the Ability of Compounds of Formula I to Inhibit Human Recombinant SSAO/VAP-1
Human recombinant SSAO/VAP-1 amine oxidase activity was determined using the coupled colorimetric method as described for monoamine oxidase, copper-containing amine oxidases and related enzymes (Holt A. and Palcic M., A peroxidase-coupled continuous absorbance plate-reader assay for flavin monoamine oxidases, copper-containing amine oxidases and related enzymes. Nat Protoc 2006; 1: 2498-2505). Briefly, a cloned cDNA template corresponding to residues 34-763 of human SSAO/VAP-1, and incorporating a mouse Ig kappa (κ) signal sequence, N-terminal flag epitope tag and tobacco etch virus (TEV) cleavage site, was assembled in a mammalian expression vector (pLO-CMV) by Geneart AG. This vector containing human SSAO/VAP-1 residues was transfected into CHO-K1 glycosylation mutant cell line, Lec 8. A clone stably expressing human SSAO/VAP-1 was isolated and cultured in large scale. Active human SSAO/VAP-1 was purified and recovered using immunoaffinity chromatography. This was used as the source for SSAO/VAP-1 activity. A high-throughput colorimetric assay was developed using either 96 or 384 well format. Briefly, in a standard 96 well plate assay 50 μL of purified human SSAO/VAP-1 (0.25 μg/mL) in 0.1 M sodium phosphate buffer (pH 7.4) was added into each well. Test compounds were dissolved in DMSO and tested in a Concentration Response Curve (CRC) with 4-11 data points, typically in the micromolar or nanomolar range after incubation with human SSAO/VAP-1 for 30 min at 37° C. After 30 min incubation, 50 μL of the reaction mixture containing 600 μM benzylamine (Sigma Aldrich), 120 μM Amplex Red (Sigma Aldrich) and 1.5 U/mL horseradish peroxidase (Sigma Aldrich) prepared in 0.1 M sodium phosphate buffer (pH 7.4) were added to the corresponding well. The fluorescence unit (RFU) was read every 2.5 min for 30 min at 37° C. excitation 565 nm and emission 590 (Optima; BMG labtech). The slope of the kinetics for each well was calculated using MARS data analysis software (BMG labtech) and this value was used to deduce the IC50 value (Dotmatics).

Recombinant human MAO-B = Recombinant human MAO-B (Homo sapiens (Human), UniProt P27338); experiment: Human recombinant MAO-B inhibition; conditions: benzylamine 100 μM
Chain of Recombinant human MAO-B (P27338 whole entry): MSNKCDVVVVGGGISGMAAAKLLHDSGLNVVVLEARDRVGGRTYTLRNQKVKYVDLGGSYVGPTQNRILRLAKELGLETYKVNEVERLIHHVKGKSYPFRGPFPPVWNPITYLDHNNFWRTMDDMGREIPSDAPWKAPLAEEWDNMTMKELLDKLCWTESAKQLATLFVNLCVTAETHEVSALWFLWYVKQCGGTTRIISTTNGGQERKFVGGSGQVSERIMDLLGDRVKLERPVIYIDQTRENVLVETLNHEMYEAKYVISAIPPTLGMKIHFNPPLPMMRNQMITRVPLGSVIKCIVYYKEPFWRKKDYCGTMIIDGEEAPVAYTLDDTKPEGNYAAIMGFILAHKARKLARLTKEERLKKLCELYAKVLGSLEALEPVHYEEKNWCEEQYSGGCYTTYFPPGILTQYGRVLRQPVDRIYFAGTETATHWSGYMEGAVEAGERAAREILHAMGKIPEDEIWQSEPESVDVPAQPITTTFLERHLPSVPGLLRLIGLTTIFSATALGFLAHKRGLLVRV
Procedure: Method to Determine the Ability of Compounds of Formula I to Inhibit Human Recombinant MAO-B
The specificity of the compounds of this invention was tested by determining their ability to inhibit MAO-B activities in vitro. Recombinant human MAO-B (0.06 mg/mL; Sigma Aldrich) was used as source of MAO-B enzyme activities. The assay was performed in a similar way as for human SSAO/VAP-1 (Example 36) except, the substrate benzylamine was used at 100 μM.

Structure (SMILES) | IC50 (Bovine LOX) [nM] | IC50 (Human LOXL2) [nM] | IC50 [1] [nM] | IC50 (Recombinant human MAO-B) [nM]
Cc1ccc2c(n1)c(Cc1ccc(S(C)(=O)=O)cc1)c(C)n2C/C(F)=C/CN [Compound 12, (Z)-4-(2,5-dimethyl-3-(4-(methylsulfonyl)benzyl)-1H-pyrrolo[3,2-b]pyridin-1-yl)-3-fluorobut-2-en-1-amine dihydrochloride] | > 300 | < 300 | > 3000 | > 3000
Cc1ccc2c(n1)c(Cc1ccc(S(C)(=O)=O)nc1)c(C)n2C/C(F)=C/CN [Compound 13, (Z)-4-(2,5-dimethyl-3-((6-(methylsulfonyl)pyridin-3-yl)methyl)-1H-pyrrolo[3,2-b]pyridin-1-yl)-3-fluorobut-2-en-1-amine trihydrochloride] | > 300 | < 300 | > 3000 | > 3000
Cc1ccc2c(n1)c(Cc1ccc(S(C)(=O)=O)cn1)c(C)n2C/C(F)=C/CN [Compound 14, (Z)-4-(2,5-dimethyl-3-((5-(methylsulfonyl)pyridin-2-yl)methyl)-1H-pyrrolo[3,2-b]pyridin-1-yl)-3-fluorobut-2-en-1-amine trihydrochloride] | > 300 | < 300 | > 3000 | > 3000
Cc1ccc2c(n1)c(Cc1ccc(S(=O)(=O)N(C)C)cn1)c(C)n2C/C(F)=C/CN [Compound 15, (Z)-6-((1-(4-amino-2-fluorobut-2-en-1-yl)-2,5-dimethyl-1H-pyrrolo[3,2-b]pyridin-3-yl)methyl)-N,N-dimethylpyridine-3-sulfonamide trihydrochloride] | > 300 | < 300 | > 3000 | > 3000
Cc1ccc2c(n1)c(Cc1ccc(S(=O)(=O)N(C)C)nc1)c(C)n2C/C(F)=C/CN [Compound 16, (Z)-5-((1-(4-amino-2-fluorobut-2-en-1-yl)-2,5-dimethyl-1H-pyrrolo[3,2-b]pyridin-3-yl)methyl)-N,N-dimethylpyridine-2-sulfonamide trihydrochloride] | > 300 | < 300 | > 3000 | > 3000
Cc1ccc2c(n1)c(Cc1cccc(S(C)(=O)=O)c1)c(C)n2C/C(F)=C/CN [Compound 17, (Z)-4-(2,5-dimethyl-3-(3-(methylsulfonyl)benzyl)-1H-pyrrolo[3,2-b]pyridin-1-yl)-3-fluorobut-2-en-1-amine dihydrochloride] | > 300 | < 300 | > 3000 | > 3000
Cc1c(Cc2cccc(S(=O)(=O)N(C)C)c2)c2ncccc2n1C/C(F)=C/CN [Compound 18, dihydrochloride] | > 300 | < 300 | > 3000 | > 3000
Cc1cc2c(nc1O)c(Cc1ccc(S(=O)(=O)N(C)C)cc1)c(C)n2C/C(F)=C/CN [Compound 19, (Z)-4-((1-(4-amino-2-fluorobut-2-en-1-yl)-5-hydroxy-2,6-dimethyl-1H-pyrrolo[3,2-b]pyridin-3-yl)methyl)-N,N-dimethylbenzenesulfonamide dihydrochloride] | > 300 | < 300 | > 3000 | > 3000
Cc1c(Cc2ccc(S(C)(=O)=O)cc2Cl)c2ncccc2n1C/C(F)=C/CN [Compound 20, (Z)-4-(3-(2-chloro-4-(methylsulfonyl)benzyl)-2-methyl-1H-pyrrolo[3,2-b]pyridin-1-yl)-3-fluorobut-2-en-1-amine dihydrochloride] | > 300 | < 300 | > 3000 | > 3000
Cc1c(Oc2ccc(S(=O)(=O)N(C)C)cc2)c2ccccc2n1C/C(F)=C/CN [Compound 21, (Z)-4-((1-(4-amino-2-fluorobut-2-en-1-yl)-2-methyl-1H-indol-3-yl)oxy)-N,N-dimethylbenzene-sulfonamide hydrochloride] | > 300 | < 300 | > 3000 | > 3000
